In patent US12098116B2, “Crystalline prostacyclin (IP) receptor agonist and uses thereof” (United Therapeutics Corporation, priority 2022, dated 2024):
In brackets after ≈: the same amount, converted by molar mass. Like-named read-outs stand apart in the source and are kept apart here. One block for each compound: values may come before it.

Tests used:
[1] = Solid form conversion on drying or heating, followed by XRPD; assay type: physicochemical
[2] = Solvent solubility study of ralinepag; assay type: physicochemical; conditions: thermodynamic from solid
Method: To prepare amorphous material for solubility testing, 330 mg of ralinepag was dissolved in 33 mL tert-butanol (with gentle heating applied via a heatgun) before being split evenly into 33 vials (˜10 mg of ralinepag per sample). […] One vial of solid was analyzed by XRPD to confirm that ralinepag had been rendered amorphous. However, as in Example 2g, a poorly crystalline Pattern 2 was observed. 32 solvents and solvent systems were added to 32×10 mg of lyophilized ralinepag in 50 μL aliquots for the first 300 μL or until complete dissolution was noted. If complete dissolution was not observed, 100 μL aliquots were added thereafter up to 1 mL total solvent. Between each addition, the mixture was manually shaken for a few seconds and if complete dissolution was not apparent, the mixture was heated to about 40° C. and checked again. Where complete dissolution occurred, the solvent was allowed to evaporate at ambient temperature. Where complete dissolution was not observed, the solids were isolated via centrifuge filtration. Recovered solids were analyzed by XRPD.

[3] = molecular target: IP receptor (Homo sapiens, UniProt P43119); conditions: head-to-head in vitro; cited from earlier work
Sequence of IP receptor (P43119 whole entry): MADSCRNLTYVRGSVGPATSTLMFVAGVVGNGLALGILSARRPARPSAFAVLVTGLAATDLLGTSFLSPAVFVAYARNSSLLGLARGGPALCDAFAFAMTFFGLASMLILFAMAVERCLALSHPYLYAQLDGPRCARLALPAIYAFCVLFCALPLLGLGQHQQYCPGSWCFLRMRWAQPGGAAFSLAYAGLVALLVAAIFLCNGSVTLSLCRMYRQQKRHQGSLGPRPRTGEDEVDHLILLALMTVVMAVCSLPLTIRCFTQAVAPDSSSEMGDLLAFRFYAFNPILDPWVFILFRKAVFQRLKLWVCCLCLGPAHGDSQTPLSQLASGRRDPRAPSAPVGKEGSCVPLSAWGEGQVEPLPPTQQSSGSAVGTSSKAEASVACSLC

[4] = system: pulmonary artery; conditions: head-to-head in vitro; cited from earlier work
[5] = healthy volunteer population, cited from earlier work
[6] = system: human pulmonary artery smooth muscle cell (PASMC); conditions: head-to-head in vitro; cited from earlier work
[7] = cited from earlier work
[8] = cited from earlier work; remark: listed apart in the source
[9] = Dynamic Vapour Sorption (DVS); assay type: physicochemical
Method: Approximately, 10 mg of sample was placed into a mesh vapor sorption balance pan and loaded into a DVS-1/DVS Intrinsic/DVS Advantage dynamic vapor sorption balance by Surface Measurement Systems. The sample was subjected to a ramping profile from 40-90% relative humidity (RH) at 10% increments, maintaining the sample at each step until a stable weight had been achieved (dm/dt 0.004%, minimum step length 30 min, maximum step length 500 min) at 25° C. After completion of the sorption cycle, the sample was dried using the same procedure to 0% RH and then a second sorption cycle back to 40% RH. Two cycles were performed. The weight change during the sorption/desorption cycles were plotted, allowing for the hygroscopic nature of the sample to be determined.

- solubility ([2]; aqueous with cosolvent or surfactant or cyclodextrin, solvent ethanol/water (48:52% v/v), read-out: Estimated Solubility): < 10 mg/mL
- solubility ([2]; organic solvent or mixture, in 29 of the 32 solvent systems, poorly crystalline ralinepag, read-out: Solubility, summary of the screen): ≥ 10 mg/mL
- solubility ([2]; organic solvent or mixture, solvent 1,1-dimethoxymethane, heated to 40° C., lyophilized poorly crystalline material, read-out: Estimated Solubility): 50 mg/mL (≈ 116 mM)
- solubility ([2]; organic solvent or mixture, solvent 1,2-dichloroethene, heated to 40° C., read-out: Estimated Solubility): 200 mg/mL (≈ 463 mM)
- solubility ([2]; organic solvent or mixture, solvent 1,4-dioxane, heated to 40° C., read-out: Estimated Solubility): 200 mg/mL (≈ 463 mM)
- solubility ([2]; organic solvent or mixture, solvent 1-butanol, heated to 40° C., read-out: Estimated Solubility): 50 mg/mL (≈ 116 mM)
- solubility ([2]; organic solvent or mixture, solvent 1-propanol, heated to 40° C., read-out: Estimated Solubility): 50 mg/mL (≈ 116 mM)
- solubility ([2]; organic solvent or mixture, solvent 2-ethoxyethanol, heated to 40° C., read-out: Estimated Solubility): 200 mg/mL (≈ 463 mM)
- solubility ([2]; organic solvent or mixture, solvent 2-methyl-1-propanol, heated to 40° C., read-out: Estimated Solubility): 50 mg/mL (≈ 116 mM)
- solubility ([2]; organic solvent or mixture, solvent 2-methyltetrahydrofuran, read-out: Estimated Solubility): 200 mg/mL (≈ 463 mM)
- solubility ([2]; organic solvent or mixture, solvent 2-propanol, heated to 40° C., read-out: Estimated Solubility): 50 mg/mL (≈ 116 mM)
- solubility ([2]; organic solvent or mixture, solvent N,N-dimethylacetamide, read-out: Estimated Solubility): 200 mg/mL (≈ 463 mM)
- solubility ([2]; organic solvent or mixture, solvent N,N-dimethylformamide, read-out: Estimated Solubility): 200 mg/mL (≈ 463 mM)
- solubility ([2]; organic solvent or mixture, solvent N-methyl-2-pyrrolidone, read-out: Estimated Solubility): 200 mg/mL (≈ 463 mM)
- solubility ([2]; organic solvent or mixture, solvent acetone, read-out: Estimated Solubility): 200 mg/mL (≈ 463 mM)
- solubility ([2]; organic solvent or mixture, solvent acetonitrile, heated to 40° C., read-out: Estimated Solubility): 40 mg/mL (≈ 92.6 mM)
- solubility ([2]; organic solvent or mixture, solvent anisole, read-out: Estimated Solubility): 200 mg/mL (≈ 463 mM)
- solubility ([2]; organic solvent or mixture, solvent benzyl alcohol, read-out: Estimated Solubility): 200 mg/mL (≈ 463 mM)
- solubility ([2]; organic solvent or mixture, solvent butyl acetate, heated to 40° C., read-out: Estimated Solubility): 50 mg/mL (≈ 116 mM)
- solubility ([2]; organic solvent or mixture, solvent dimethylsulfoxide, heated to 40° C., read-out: Estimated Solubility): 200 mg/mL (≈ 463 mM)
- solubility ([2]; organic solvent or mixture, solvent ethanol/water (93:7% v/v), heated to 40° C., read-out: Estimated Solubility): 100 mg/mL (≈ 232 mM)
- solubility ([2]; organic solvent or mixture, solvent ethanol/water (98.5:1.5% v/v), read-out: Estimated Solubility): 100 mg/mL (≈ 232 mM)
- solubility ([2]; organic solvent or mixture, solvent ethanol, heated to 40° C., read-out: Estimated Solubility): 100 mg/mL (≈ 232 mM)
- solubility ([2]; organic solvent or mixture, solvent ethyl acetate, heated to 40° C., read-out: Estimated Solubility): 100 mg/mL (≈ 232 mM)
- solubility ([2]; organic solvent or mixture, solvent heptane, read-out: Estimated Solubility): < 10 mg/mL
- solubility ([2]; organic solvent or mixture, solvent isopropyl acetate, heated to 40° C., read-out: Estimated Solubility): 66.7 mg/mL (≈ 154 mM)
- solubility ([2]; organic solvent or mixture, solvent methanol, heated to 40° C., read-out: Estimated Solubility): 200 mg/mL (≈ 463 mM)
- solubility ([2]; organic solvent or mixture, solvent methylethyl ketone, heated to 40° C., read-out: Estimated Solubility): 200 mg/mL (≈ 463 mM)
- solubility ([2]; organic solvent or mixture, solvent methylisobutyl ketone, heated to 40° C., read-out: Estimated Solubility): 100 mg/mL (≈ 232 mM)
- solubility ([2]; organic solvent or mixture, solvent tert-butylmethyl ether, heated to 40° C., read-out: Estimated Solubility): 25 mg/mL (≈ 57.9 mM)
- solubility ([2]; organic solvent or mixture, solvent tetrahydrofuran, heated to 40° C., read-out: Estimated Solubility): 200 mg/mL (≈ 463 mM)
- solubility ([2]; organic solvent or mixture, solvent toluene, heated to 40° C., read-out: Estimated Solubility): 14.3 mg/mL (≈ 33.1 mM)
- solubility ([2]; solvent water, read-out: Estimated Solubility): < 10 mg/mL
SMILES: O=C(O)COC[C@H]1CC[C@H](COC(=O)N(c2ccccc2)c2ccc(Cl)cc2)CC1 [ralinepag, 2-([(1r,4r)-4-(((4-chlorophenyl)(phenyl)carbamoyloxy)methyl)-cyclohexyl]methoxy)acetic acid]
- Increase of cellular cAMP levels compared with selexipag [3]: more potent and efficacious than selexipag
- Pulmonary artery vasodilation compared with selexipag [4]: improved
- Variability in plasma concentrations between doses (peak:trough ratio) ([5]; compared with selexipag): less variability
- t1/2 compared with selexipag (and its active metabolite MRE-269) ([5]; single- and multiple-dose studies): longer t1/2 than selexipag
- Inhibition of human PASMC proliferation compared with selexipag [6]: better inhibition

- Solid form conversion upon drying ([1]; made from NMP/water, upon drying (even with air drying)): converts to Form 1
SMILES: O=C(O)COC[C@H]1CC[C@H](COC(=O)N(c2ccccc2)c2ccc(Cl)cc2)CC1 [Pattern 4]
- Solid form conversion upon drying ([1]; made from DMA/water): converts to a predominantly amorphous form with some Form 1 peaks present

- Hygroscopic nature ([9]; DVS, 25° C.): non-hygroscopic
- XRPD of the solid after DVS analysis ([9]; after DVS between 0% and 90% RH): unchanged
- Reversible water uptake ([9]; between 0% and 90% RH, 25° C.): 0.1 % (w/w)
SMILES: O=C(O)COC[C@H]1CC[C@H](COC(=O)N(c2ccccc2)c2ccc(Cl)cc2)CC1 [Form 1]

Second part, the compound before the results:

SMILES: O=C(O)COC[C@H]1CC[C@H](COC(=O)N(c2ccccc2)c2ccc(Cl)cc2)CC1 [Pattern 2]
- Solid form after drying (XRPD) ([1]; dried under vacuum at 40° C. for approximately 21 h): retained
- Solid form conversion on heating ([1]; on heating): converts to Form 1

SMILES: CC(C)N(CCCCOCC(=O)NS(C)(=O)=O)c1cnc(-c2ccccc2)c(-c2ccccc2)n1 [Selexipag]
- Effect on PVR ([7]; after 17 weeks of treatment): reduce PVR
- Reduction in a composite morbidity and mortality endpoint ([7]; in vivo): 40%

SMILES: CCCCC[C@H](O)/C=C/[C@@H]1[C@H]2C/C(=C/CCCC(=O)O)O[C@H]2C[C@H]1O [epoprostenol]
- Stability at room temperature [8]: unstable at room temperature
